# Laboratory results as given in patent US12545668B2, “Cyclic amine derivative as agent for promoting advillin function, and novel cyclic amine derivative and pharmaceutical use thereof” (Toray Industries, Inc., priority 2018, dated 2026).
# Tests used:
# Settings in all cases: 3H-labeled compound of Example 7, 37° C., 1 hour; relative to dorsal root ganglion
# [1] = Specific binding of 3H-labeled compound to membrane fractions prepared from the other rat tissues
# Method: (§1) A binding property of a ^3H-labeled cyclic amine derivative (I) to each of membrane fractions prepared from various tissues of a rat was evaluated, and thus, a tissue containing a molecular target of the cyclic amine derivative (I) was clarified.
# (§2) As the cyclic amine derivative (I), the compound of Example 7 was used.
# (§3) Male SD rats (manufactured by Charles River Laboratories Japan, Inc.) of 7 weeks old were used. Rats were anesthetized with isoflurane, and euthanized by exsanguination from the abdominal aorta using a syringe having an inner wall treated with a heparin sodium injection (manufactured by AY Pharmaceuticals Co., Ltd.). […]
# (§4) A homogenate sample of each tissue thus collected was prepared, using a homogenizer, by adding a homogenize buffer (sucrose (1 M), Tris-HCl (0.5 M), and 1× protease inhibitor cocktail (manufactured by Sigma Aldrich), pH 7.6) to the collected tissue. […] The resultant supernatant was ultracentrifuged at 100,000×g at 4° C. for 60 minutes, and the thus obtained precipitate was suspended in Krebs-Ringer bicarbonate buffer (manufactured by Sigma Aldrich) to quantitatively determine the amount of protein using a BCA protein assay kit (manufactured by Thermo Fisher Scientific K.K.). […]
# [2] = Specific binding of 3H-labeled compound to membrane fraction prepared from rat brainstem
# Method: as §1, §2, §3, §4
# [3] = Specific binding of 3H-labeled compound to membrane fraction prepared from rat spinal cord
# Method: as §1, §2, §3, §4
structure (smiles),measurement,setting,value
"CN(C)C1CCN(C(=O)C[C@H](O)c2nccn2C)CC1 [Example 7, (S)-1-(4-(dimethylamino)piperidin-1-yl)-3-hydroxy-3-(1-methyl-1H-imidazol-2-yl)propan-1-one]","specific bindings to the membrane fractions prepared from the other tissues including the brain, as % of the specific binding to the dorsal root ganglion membrane fraction",[1],less than 1%
same,"specific binding to the membrane fraction prepared from the brainstem, as % of the specific binding to the dorsal root ganglion membrane fraction",[2],4.2%
same,"specific binding to the membrane fraction prepared from the spinal cord, as % of the specific binding to the dorsal root ganglion membrane fraction",[3],23%
